Test results reported in patent US5093045A, “Biologically active lipids binding membrane receptors” (priority 1990, dated 1992).
Where “and” joins values, the source holds several entries; their conditions need not be identical. Equal entries are not always repeated.

Legend:
[1] = tested on: phorboid receptor (PDBu receptor) of murine brain membranous fraction (BMF); assay: PDBu binding inhibiting activity (PBIA): inhibition of 3H-PDBu binding to murine brain membranous fraction; set-up: species or system mouse
Protocol: Pooled murine brains from approximately 2 month old mice, NFS strain, were minced with scissors, suspended in 1 mM triethanolamine-HCl, pH 7.4, and disrupted with a polytron P-10 (Brinkman). This and all subsequent steps were performed at 4° C. The homogenate was centrifuged for 10 minutes at 1700xg; the supernate was removed and centrifuged for 60 minutes at 105,000xg. The resulting pellet was suspended in one-fourth of the initial volume of PBS. The suspension was aliquoted into a small volume and stored at -70° C.
The binding of ^3 H-PDBu to BMF or soluble receptors was performed in duplicate in 12×75mm disposable glass tubes (Kimax) both in the absence and presence of 20μg/ml unlabeled PDBu; the binding mixture contained 5ng of ^3 H-PDBu (4×10^4 cpm), 0.2% final concentration of DMSO and BMF (50μg protein) or soluble receptors in a total volume of 0.25 ml binding buffer (BB) consisting of Dulbecco's […] (DMEM) containing bovine serum albumin (BSA lmg/ml) and N,N,-bis-(2-hydroxyethyl)-2-amino-ethane sulfonic acid (BES, 5mM), adjusted to pH 6.8. After incubation for 30 minutes at 23° C. the tubes were chilled, 0.5 ml cold 4% calf serum (Colorado Serum Co., Denver, CO) and 0.7 ml cold polyethylene glycol (PEG 6,000) in 1 mM Tris-HCl, pH 7.4 was added to each tube, the contents vortexed, the tubes allowed to stand for 15 min at 4° C., and centrifuged for 10 min at 1500xg at 4° C. The supernatant solution was carefully aspirated off, the pellet suspended in 2.5 ml of cold 10% PEG in 0.1 M Tris-HCl, pH 7.4, containing 0.5% SDS and 1 mM EDTA). The mixture was transferred to counting vials and 10 ml of Aquassure (NEN) was added to each vial. The vials were vigorously shaken and radioactivity determined using a Beckman beta counter.
The loss of the ability of ^3 H-PDBu to bind to receptors in the presence of ligand was used as the measure of inhibiting activity. PDBu binding inhibition assays were performed as described above, except the test materials were added to the reaction mixture and binding measured as described above.
The PBIA of ligand was equated with that of PDBu by the use of the term ng equivalent calculated from a plot of [^3 H]PDBu bound versus the log molar concentration for several biologically active phorbol esters (2). The curve corresponding to PDBu inhibition of PDBu binding was used by reading the molar concentration corresponding to the percent of control binding of ^3 H]PDBu in the presence of ligand to obtain the units ng PDBu equivalent of ligand.

[2] = tested on: arachidonic acid cascade in mink lung cells; assay: Stimulation of arachidonic acid cascade: release of radioactivity from cells prelabeled with arachidonic acid; assay type: cell-based; conditions: cells previously labeled with radioactive arachidonic acid
Text: The release of radioactivity into the medium from cells previously labeled with radioactive arachidonic was used as a measure of activation of eicosanoids pathway. […] PBIL from all sources inhibited PDBu-receptor interaction.

| Structure (SMILES) | Inhibition (%) of binding of PDBu to its receptor ([1]; concentration 0.8 nM) [%] | Inhibition (%) of binding of PDBu to its receptor ([1]; concentration 0.4 nM) [%] | also measured |
| --- | --- | --- | --- |
| CCCCCCCC/C=C\CCCCCCCC(=O)OCC(CO)OC(=O)CCCCCCC/C=C\CCCCCCCC (centres unmarked) [1,2-Diolein] | 20 | – | – |
| CCCCC/C=C\C/C=C\CCCCCCCC(=O)OCC(O)COC(=O)CCCCCCC/C=C\C/C=C\CCCCC [1,3-Dilinolein] | 15 | – | – |
| CCCCCCCC/C=C\CCCCCCCC(=O)OCC(O)COC(=O)CCCCCCC/C=C\CCCCCCCC [1,3-Diolein] | 11 | – | – |
| CCCCC/C=C\C/C=C\C/C=C\C/C=C\CCCC(=O)OCC(O)CO (centres unmarked) [1-Monoarachidonin] | 95 | 91 | Stimulation of arachidonic acid cascade (release of radioactivity into the medium) [2]: stimulate the arachidonic acid cascade; Competition with phorbol dibutyrate for its receptor (qualitative) [1]: compete with phorbol dibutyrate for its receptor; Inhibition (%) of binding of PDBu to its receptor ([1]; concentration 0.2 nM): 41% |
| CCCCC/C=C\C/C=C\CCCCCCCC(=O)OC[C@@H](O)CO [1-Monolinolein] | 94 | 82 | Stimulation of arachidonic acid cascade (release of radioactivity into the medium) ([2]; listed as 1-monolinolein): stimulate the arachidonic acid cascade; Stimulation of arachidonic acid cascade (release of radioactivity into the medium) ([2]; listed as monolinolein): activated the arachidonic acid cascade; Competition with phorbol dibutyrate for its receptor (qualitative) [1]: compete with phorbol dibutyrate for its receptor; Inhibition (%) of binding of PDBu to its receptor ([1]; concentration 0.2 nM): 39% |
| CC/C=C\C/C=C\C/C=C\CCCCCCCC(=O)OCC(O)CO (centres unmarked) [1-Monolinolenin] | 94 | 74 | Inhibition (%) of binding of PDBu to its receptor ([1]; concentration 0.2 nM): 27% |
| CCCCCCCCCCCCCC(=O)OCC(O)CO (centres unmarked) [1-Monomyristin] | – | 0 | – |
| CCCCCCCC/C=C\CCCCCCCC(=O)OCC(O)CO (centres unmarked) [1-Monoolein] | 63 | 21 | – |
| CCCCCCCCCCCCCCCC(=O)OCC(O)CO (centres unmarked) [1-Monopalmitin] | – | – | Inhibition (%) of binding of PDBu to its receptor ([1]; concentration 0.8 nM, 0.0008 µM): -6% and -15% |
| CCCCCC/C=C\CCCCCCCC(=O)OCC(O)CO (centres unmarked) [1-Monopalmitolein] | 82 | 36 | Stimulation of arachidonic acid cascade (release of radioactivity into the medium) [2]: stimulate the arachidonic acid cascade; Competition with phorbol dibutyrate for its receptor (qualitative) [1]: compete with phorbol dibutyrate for its receptor |
| OCC(O)CO [Glycerol] | – | 0 | – |
| CCCCC/C=C\C/C=C\CCCCCCCC(=O)O [Linoleic acid-Na] | 15 | 10 | – |

Second part, led by results:

| Inhibition (%) of binding of PDBu to its receptor ([1]; concentration 0.8 nM) [%] | Inhibition (%) of binding of PDBu to its receptor ([1]; concentration 0.4 nM) [%] | Structure (SMILES) | also measured |
| --- | --- | --- | --- |
| – | 1 | CCCCCCCCCCCCCC(=O)OCC(O)COC(=O)CCCCCCCCCCCCC [1,3-Dimyritin] | – |
| -12 | – | CCCCCCCCCCCCCCCC(=O)OCC(O)COC(=O)CCCCCCCCCCCCCCC [1,3-Dipalmitin] | – |
| – | 11 | CCCCCCCCCCCC(=O)OCC(COC(=O)CCCCCCCCCCC)OC(=O)CCCCCCCCCCC [Trilaurin] | – |
| -1 | – | CCCCC/C=C\C/C=C\CCCCCCCC(=O)OCC(COC(=O)CCCCCCC/C=C\C/C=C\CCCCC)OC(=O)CCCCCCC/C=C\C/C=C\CCCCC [Trilinolein] | – |
| – | 15 | CCCCCCCCCCCCCC(=O)OCC(COC(=O)CCCCCCCCCCCCC)OC(=O)CCCCCCCCCCCCC [Trimystrin] | – |
| -8 | -11 | CCCCCCCCCCCCCCCC(=O)OCC(COC(=O)CCCCCCCCCCCCCCC)OC(=O)CCCCCCCCCCCCCCC [Tripalmitin] | – |
